Measured values from patent US9637469B2, “Pyridine derivative” (Teijin Pharma Limited, priority 2012, dated 2017).
pIC50: −log10 of the molar value.

Target: T1, human URAT1 (Homo sapiens, UniProt Q96S37)
T1 construct: Full-length cDNA of human URAT1 (hURAT1)
T1 sequence (Q96S37 1-553): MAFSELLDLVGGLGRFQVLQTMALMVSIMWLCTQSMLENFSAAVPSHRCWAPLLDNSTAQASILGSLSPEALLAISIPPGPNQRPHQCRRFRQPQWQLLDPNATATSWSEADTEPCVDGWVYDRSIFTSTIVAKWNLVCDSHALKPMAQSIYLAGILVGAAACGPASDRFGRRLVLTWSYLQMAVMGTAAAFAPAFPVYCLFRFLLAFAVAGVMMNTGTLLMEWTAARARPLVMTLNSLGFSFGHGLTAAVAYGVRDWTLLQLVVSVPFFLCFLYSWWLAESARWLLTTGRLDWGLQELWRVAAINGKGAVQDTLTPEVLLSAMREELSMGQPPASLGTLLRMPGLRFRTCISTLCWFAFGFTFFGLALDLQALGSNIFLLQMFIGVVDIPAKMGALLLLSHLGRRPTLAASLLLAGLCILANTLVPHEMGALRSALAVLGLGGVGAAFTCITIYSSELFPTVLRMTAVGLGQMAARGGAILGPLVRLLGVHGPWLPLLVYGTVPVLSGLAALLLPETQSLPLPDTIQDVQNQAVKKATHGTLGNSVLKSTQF
Experiment: Test for inhibition of uric acid transport using human URAT1-expressing cells;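 note: three stars up to 0.2 µM two stars 0.2-2 µM one star 2-20 µM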
Format: cell-based
Conditions: HEK 293 cells expressing human URAT1; 14C-labeled uric acid 25 μM; uptake 37° C. for 5 min
Experimental: (1) Preparation of the Test Compound
The test compound was dissolved in DMSO (produced by Sigma) to a concentration of 20 mM and was subsequently used by diluting to desired concentrations.
(2) Test for Inhibition of Uric Acid Transport Using Human URAT1-Expressing Cells;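 note: three stars up to 0.2 µM two stars 0.2-2 µM one star 2-20 µM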
Full-length cDNA of human URAT1 (hURAT1) (produced by OriGene Technologies, Inc., NCBI Reference Sequence: NM 144585) was subcloned into an expression vector, pCMV6-Kan/Neo (produced by OriGene Technologies, Inc.), and hURAT1 gene was transfected into human embryonic kidney-derived cells (HEK 293 cells) by liposome method using Lipofectamine 2000 (produced by Invitrogen Corporation), whereupon HEK 293 cells expressing human URAT1 gene were screened by its Geneticin resistance. By a method similar to the following method, functional expression of human URAT1 gene was confirmed by using transport of ^14C-labeled uric acid into the cells as an index.
The HEK 293 cells expressing human URAT1 were seeded in a 24-well cell culture dish to a density of 3×10^5 cells/mL/well and were cultured in Dulbecco's modified Eagle's medium (D-MEM medium) containing 10% fetal bovine serum at 37° C. for 2 days. Thereafter, the following test for inhibition of uric acid transport was performed.
After the medium was removed by aspiration from each well, the medium was replaced with a solution obtained by substituting NaCl in Hank's Balanced Salt Solution (HBSS) with Na gluconate (hereinafter, HBSS/Na-gluconate) and the cells were preincubated at 37° C. for about 10 minutes. HBSS/Na-gluconate was removed by aspiration and a ^14C-uric acid solution that was warmed at 37° C. in advance containing various concentrations of the Example compound described in (1) and a radioactive ligand (^14C-labeled uric acid; final concentration 25 μM) was added and an uptake reaction was carried out by incubating at 37° C. for 5 min. After the incubation, ^14C-labeled uric acid solution was removed by aspiration and the cells were washed three times with ice-cold HBSS. The HEK 293 cells expressing human URAT1 were lysed in 0.2 mol/L aqueous NaOH (hereafter, the cell sample) and the cell samples were collected. The cell sample and a liquid scintillation liquid, ULTIMA GOLD (produced by PerkinElmer, Inc.) were mixed and the radioactivity was measured by a liquid scintillation counter (Beckman Coulter, Inc.).
The uric acid transport rate of the Example compound at each concentration (% of control uptake) was calculated relative to the radioactivity (radioactivity in human URAT1 expressing HEK 293 cells without addition of the Example compound (DMSO addition)) showing URAT1-specific uric acid transport as 100%, and the concentration (IC50) of the Example compound at which the uric acid transport rate is inhibited by 50% was determined. In addition, the symbols (*, **, and ***) in the table represent the following inhibitory activity values: • IC50≦_ 0.2 μM: *** • 0.2 μM<IC50≦2 μM: ** • 2 μM<IC50≦20 μM: *

Inhibitory Activity (IC50 of uric acid transport inhibition) | Structure (SMILES)
* * | Cc1nc(-c2cccnc2)n(Cc2cc(F)ccc2Cl)c1C(=O)O [Compound A41, 1-(2-chloro-5-fluorobenzyl)-4-methyl-2-(pyridin-3-yl)-1H-imidazole-5-carboxylic acid]
* * | Cc1nc(-c2cccnc2)n(Cc2cc(Cl)ccc2F)c1C(=O)O [Compound A42, 1-(5-chloro-2-fluorobenzyl)-4-methyl-2-(pyridin-3-yl)-1H-imidazole-5-carboxylic acid]
* * * | Cc1nc(-c2cccnc2)n(Cc2cc(C(F)(F)F)ccc2Cl)c1C(=O)O [Compound A43, 1-(2-chloro-5-(trifluoromethyl)benzyl)-4-methyl-2-(pyridin-3-yl)-1H-imidazole-5-carboxylic acid]
* * | Cc1nc(-c2cccnc2)n(Cc2cc(Cl)ccc2C(F)(F)F)c1C(=O)O [Compound A44, 1-(5-chloro-2-(trifluoromethyl)benzyl)-4-methyl-2-(pyridin-3-yl)-1H-imidazole-5-carboxylic acid]
* * * | O=C(O)c1cnc(-c2cccnc2)n1Cc1cc(Cl)ccc1Cl [Compound A45, 1-(2,5-dichlorobenzyl)-2-(pyridin-3-yl)-1H-imidazole-5-carboxylic acid]
* * | Cc1nc(-c2cccnc2)n(Cc2cc(C(F)(F)F)ccc2C(F)(F)F)c1C(=O)O [Compound A46, 1-(2,5-bis(trifluoromethyl)benzyl)-4-methyl-2-(pyridin-3-yl)-1H-imidazole-5-carboxylic acid]
* * | Cc1nc(-c2cccnc2)n(Cc2ccccc2Br)c1C(=O)O [Compound A54, 1-(2-bromobenzyl)-4-methyl-2-(pyridin-3-yl)-1H-imidazole-5-carboxylic acid]
* * | Cc1nc(-c2cccnc2)n(Cc2cccc(Br)c2)c1C(=O)O [Compound A55, 1-(3-bromobenzyl)-4-methyl-2-(pyridin-3-yl)-1H-imidazole-5-carboxylic acid]
* * | Cc1nc(-c2cnc3ccccc3c2)n(Cc2cc(Cl)ccc2Cl)c1C(=O)O [Compound A67, 1-(2,5-dichlorobenzyl)-4-methyl-2-(quinolin-3-yl)-1H-imidazole-5-carboxylic acid]
* * | Cc1nc(-c2cccnc2)n(Cc2ccc(Cl)c(Cl)c2)c1C(=O)O [Compound A68, 1-(3,4-dichlorobenzyl)-4-methyl-2-(pyridin-3-yl)-1H-imidazole-5-carboxylic acid]
* * | Cc1nc(-c2cccnc2)n(Cc2cccc(Cl)c2Cl)c1C(=O)O [Compound A70, 1-(2,3-dichlorobenzyl)-4-methyl-2-(pyridin-3-yl)-1H-imidazole-5-carboxylic acid]
* * * | Cc1nc(-c2cccnc2)n(Cc2cc(Cl)cc(Cl)c2)c1C(=O)O [Compound A71, 1-(3,5-dichlorobenzyl)-4-methyl-2-(pyridin-3-yl)-1H-imidazole-5-carboxylic acid]
* * | Cc1nc(-c2cccnc2)n(Cc2cc(F)cc(Cl)c2)c1C(=O)O [Compound A76, 1-(3-chloro-5-fluorobenzyl)-4-methyl-2-(pyridin-3-yl)-1H-imidazole-5-carboxylic acid]
* * | Cc1nc(-c2cccnc2)n(Cc2ccc(Cl)cc2Cl)c1C(=O)O [Compound A77, 1-(2,4-dichlorobenzyl)-4-methyl-2-(pyridin-3-yl)-1H-imidazole-5-carboxylic acid]
* * * | Cc1ccc(Cl)c(Cn2c(-c3cccnc3)nc(C)c2C(=O)O)c1 [Compound A78, 1-(2-chloro-5-methylbenzyl)-4-methyl-2-(pyridin-3-yl)-1H-imidazole-5-carboxylic acid]
* * | Cc1nc(-c2cccnc2)n(Cc2cc(Cl)sc2Cl)c1C(=O)O [Compound A79, 1-((2,5-dichlorothiophen-3-yl)methyl)-4-methyl-2-(pyridin-3-yl)-1H-imidazole-5-carboxylic acid]
* * | Cc1nc(-c2cccnc2)n(Cc2sc(Cl)cc2Cl)c1C(=O)O [Compound A80, 1-((2,4-dichlorothiophen-5-yl)methyl)-4-methyl-2-(pyridin-3-yl)-1H-imidazole-5-carboxylic acid]
* * | O=C(O)c1c(C2CC2)nc(-c2cccnc2)n1Cc1cccc2ccsc12 [Compound A82, 1-(benzo[b]thiophen-7-ylmethyl)-4-cyclopropyl-2-(pyridin-3-yl)-1H-imidazole-5-carboxylic acid]

Same assay, conditions: HEK 293 cells expressing human URAT1; 14C-labeled uric acid 25 μM; uptake 37° C. for 5 min; read-out: Inhibitory Activity (IC50 of uric acid transport inhibition)

pIC50 | Structure (SMILES)
4.70 to 5.70 | COc1ccc(-c2nc(C)c(C(=O)O)n2Cc2cccc3ccccc23)c(OC)n1 [Compound A47]
4.70 to 5.70 | Cc1nc(-c2cccnc2)n(Cc2ccccc2F)c1C(=O)O [Compound A48]
4.70 to 5.70 | Cc1nc(-c2cccnc2)n(Cc2cccc(F)c2)c1C(=O)O [Compound A49]
4.70 to 5.70 | Cc1nc(-c2cccnc2)n(Cc2ccc(F)cc2)c1C(=O)O [Compound A50]
4.70 to 5.70 | Cc1nc(-c2cccnc2)n(Cc2ccccc2Cl)c1C(=O)O [Compound A51]
4.70 to 5.70 | Cc1nc(-c2cccnc2)n(Cc2cccc(Cl)c2)c1C(=O)O [Compound A52]
4.70 to 5.70 | Cc1nc(-c2cccnc2)n(Cc2ccc(Cl)cc2)c1C(=O)O [Compound A53]
4.70 to 5.70 | Cc1nc(-c2cccnc2)n(Cc2ccc(Br)cc2)c1C(=O)O [Compound A56]
4.70 to 5.70 | Cc1ccccc1Cn1c(-c2cccnc2)nc(C)c1C(=O)O [Compound A57]
4.70 to 5.70 | Cc1cccc(Cn2c(-c3cccnc3)nc(C)c2C(=O)O)c1 [Compound A58]
4.70 to 5.70 | CCc1ccccc1Cn1c(-c2cccnc2)nc(C)c1C(=O)O [Compound A59]
4.70 to 5.70 | Cc1nc(-c2cccnc2)n(Cc2ccccc2C(F)(F)F)c1C(=O)O [Compound A60]
4.70 to 5.70 | Cc1nc(-c2cccnc2)n(Cc2cccc(C(F)(F)F)c2)c1C(=O)O [Compound A61]
4.70 to 5.70 | Cc1nc(-c2cccnc2)n(Cc2ccccc2OC(F)(F)F)c1C(=O)O [Compound A62]
4.70 to 5.70 | Cc1nc(-c2cccnc2)n(Cc2cccc(OC(F)(F)F)c2)c1C(=O)O [Compound A63]
4.70 to 5.70 | Cc1nc(-c2cccnc2)n(Cc2ccccc2C#N)c1C(=O)O [Compound A64]
4.70 to 5.70 | Cc1nc(-c2cccnc2)n(Cc2cccc(C#N)c2)c1C(=O)O [Compound A65]
4.70 to 5.70 | Cc1nc(-c2cnc3ccccc3c2)n(Cc2cccc3ccccc23)c1C(=O)O [Compound A66]
4.70 to 5.70 | Cc1nc(-c2cccnc2)n(Cc2c(F)cccc2Cl)c1C(=O)O [Compound A72]
4.70 to 5.70 | Cc1nc(-c2cccnc2)n(Cc2ccc(F)cc2Cl)c1C(=O)O [Compound A73]
4.70 to 5.70 | Cc1nc(-c2cccnc2)n(Cc2cccc(Cl)c2F)c1C(=O)O [Compound A74]
4.70 to 5.70 | Cc1nc(-c2cccnc2)n(Cc2ccc(F)c(Cl)c2)c1C(=O)O [Compound A75]
